Results taken from patent publication US11591631B2, “Glucose monitoring method and glucose sensor” (TOYOBO CO., LTD., priority 2017, dated 2023).
Where two headings read alike, the source gives them in different places.

Key:
[1] = test system: modified FADGDH GDH-6, random mutant of FADGDH of SEQ ID No. 5; test: Michaelis constant of GDH-6 in aqueous system (DCPIP/PMS, Lineweaver-Burk plot); type: biochemical; settings: pH 6.5, 37° C., Lineweaver-Burk at 30, 50, 100, 200 mM, read-out: Michaelis constant (Km) for glucose
Protocol: (§1) In the present invention, the activity of glucose dehydrogenase is defined using, as 1 unit (U), the amount of enzyme that reduces 1 micromole of DCPIP per minute in the presence of a substrate according to a method using a reagent having the following formulation.
(§2) 50 mM PIPES buffer (pH: 6.5; containing 0.1% TritonX-100)
(§3) 2 mM 2,5-dichlorophenolindophenol (DCPIP) solution
(§4) First, 3 ml of reaction reagent is pre-warmed at 37° C. for 5 minutes. 0.1 ml of GDH solution is added thereto, and the resulting mixture is gently mixed. Then, the change in absorbance at 600 nm is record for 5 minutes by a spectrophotometer adjusted at 37° C. with water as a control, and the change in absorbance per minute (ΔODTEST) is measured from the straight line portion. In a blind test, a solvent that dissolves GDH is added to the reagent mixture, instead of the GDH solution, and the change in absorbance per minute (ΔODBLANK) is similarly measured. From these values, GDH activity is determined according to the following formula. […] Activity (U/ml)={−(ΔODTEST−ΔODBLANK)×3.0×dilution magnification}/{16.3×0.1×1.0} […]

[2] = test system: FADGDH GDH-3, SEQ ID No. 3 (SEQ ID No. 1 of JP4649993B); test: Michaelis constant of GDH-3 in aqueous system (DCPIP/PMS, Lineweaver-Burk plot); type: biochemical, Mucor prainii; settings: pH 6.5, 37° C., Lineweaver-Burk at 30, 50, 100, 200 mM, read-out: Michaelis constant (Km) for glucose
Protocol: as §1, §2, §3, §4

[3] = test system: FADGDH GDH-2, SEQ ID No. 2 (SEQ ID No. 1 of JP2013-116102A); test: Michaelis constant of GDH-2 in aqueous system (DCPIP/PMS, Lineweaver-Burk plot); type: biochemical; settings: pH 6.5, 37° C., Lineweaver-Burk at 30, 50, 100, 200 mM, read-out: Michaelis constant (Km) for glucose
Protocol: as §1, §2, §3, §4

[4] = test system: FADGDH GDH-4, SEQ ID No. 4 (SEQ ID No. 1 of JP2015-146773A); test: Michaelis constant of GDH-4 in aqueous system (DCPIP/PMS, Lineweaver-Burk plot); type: biochemical; settings: pH 6.5, 37° C.
Protocol: as §1, §2, §3, §4

[5] = test system: modified FADGDH GDH-5, random mutant of FADGDH of SEQ ID No. 5; test: Michaelis constant of GDH-5 in aqueous system (DCPIP/PMS, Lineweaver-Burk plot); type: biochemical; settings: pH 6.5, 37° C., Lineweaver-Burk at 30, 50, 100, 200 mM, read-out: Michaelis constant (Km) for glucose
Protocol: as §1, §2, §3, §4

[6] = test system: FADGDH enzymes of Table 1 (GDH-1 to GDH-4); test: Km for D-glucose of the enzymes listed in Table 1; type: biochemical; settings: read-out: Km for D-glucose; range over the enzymes listed in Table 1
Protocol: as §1
First, 3 ml of reaction reagent is pre-warmed at 37° C. for 5 minutes. 0.1 ml of GDH solution is added thereto, and the resulting mixture is gently mixed. Then, the change in absorbance at 600 nm is record for 5 minutes by a spectrophotometer adjusted at 37° C. with water as a control, and the change in absorbance per minute (ΔODTEST) is measured from the straight line portion. In a blind test, a solvent that dissolves GDH is added to the reagent mixture, instead of the GDH solution, and the change in absorbance per minute (ΔODBLANK) is similarly measured. From these values, GDH activity is determined according to the following formula. […] Activity (U/ml)={−(ΔODTEST−ΔODBLANK)×3.0×dilution magnification}/{16.3×0.1×1.0}
GDH-3 is obtained by genetically engineering and expressing GDH having an amino acid sequence of SEQ ID No. 3 (the amino acid sequence represented by SEQ ID No. 1 of JP4649993B) using the Cryptococcus sp. S-2 D11 strain (FERM BP-11482) described in JP5588578B. […]

[7] = substrate: OC[C@H]1OC(O)[C@H](O)[C@@H](O)[C@@H]1O; test: purified protein, by the assay type; settings: other: pH 6.5, 37° C., aqueous system, Lineweaver-Burk at 30, 50, 100, 200 mM
[8] = substrate: OC1OC[C@@H](O)[C@H](O)[C@H]1O; test: purified protein, by the assay type; settings: other: pH 6.5, 37° C., aqueous system, Lineweaver-Burk

## OC[C@H]1OC(O)[C@H](O)[C@@H](O)[C@@H]1O (stereo partly drawn) [D-glucose]
[1]
  Km: 82 mM
[2]
  Km: 31 mM
[3]
  Km: 16 mM
[4]; Lineweaver-Burk at 30, 50, 100, 200 mM, read-out: Michaelis constant (Km) for glucose
  Km: 14 mM
[5]
  Km: 80 mM
[6]
  Km: 14 to 82 mM

## OC1OC[C@@H](O)[C@H](O)[C@H]1O (stereo partly drawn) [D-xylose]
[4]; Lineweaver-Burk, read-out: Michaelis constant (Km) for xylose
  Km: 82 mM

B1: FADGDH GDH-1, SEQ ID No. 1 (encoded by SEQ ID No. 8 of JP527482B) (Aspergillus oryzae) (protein)
chain: MKNTTTYDYIVVGGGTSGLVVANRLSENPDVSVLLLEAGASVFNNPDVTNANGYGLAFGSAIDWQYQSINQSYAGGKQQVLRAGKALGGTSTINGMAYTRAEDVQIDVWQKLGNEGWTWKDLLPYYLKSENLTAPTSSQVAAGAAYNPAVNGKEGPLKVGWSGSLASGNLSVALNRTFQAAGVPWVEDVNGGKMRGFNIYPSTLDVDLNVREDAARAYYFPYDDRKNLHLLENTTANRLFWKNGSAEEAIADGVEITSADGKVTRVHAKKEVIISAGALRSPLILELSGVGNPTILKKNNITPRVDLPTVGENLQDQFNNGMAGEGYGVLAGASTVTYPSISDVFGNETDSIVASLRSQLSDYAAATVKVSNGHMKQEDLERLYQLQFDLIVKDKVPIAEILFHPGGGNAVSSEFWGLLPFARGNIHISSNDPTAPAAINPNYFMFEWDGKSQAGIAKYIRKILRSAPLNKLIAKETKPGLSEIPATAADEKWVEWLKANYRSNFHPVGTAAMMPRSIGGVVDNRLRVYGTSNVRVVDASVLPFQVCGHLVSTLYAVAERASDLIKEDAKSA
[7]
  Km: 68 mM
[8]
  Km: 39 mM
